{"source": "patent US20230272012A1", "about": "“PEPTIDES AND METHODS OF USE” (REALTA LIFE SCIENCES, INC., priority 2020, published 2023)", "key": {"[1]": {"system": "antibody-initiated complement activation (human O sera and AB red blood cells)", "test": "ABO incompatibility hemolytic assay of complement activity (CH50-type)", "format": "cell-based", "conditions": "peptide 0.8 mg/ml (~0.5 mM)", "experimental": "FIG. 1A-1B show PIC1 peptides' inhibition of complement activation in an ABO incompatibility assay. […] Inhibition of ABO incompatibility hemolysis in a CH50-type assay. Peptides are at a final concentration of 0.5 mM. Values are represented as a percent of the positive control, which consists of human O sera and AB red blood cells in GVBS^++ buffer. Data are the means of n=3 independent experiments±SEM.\nFor hemolytic complement assays, human red blood cells (RBCs) from type AB donors were purified, washed, and standardized to 1.0×10^9 cells/ml, as previously described. Human sera from type O donors at a 15% final concentration was combined with 0.5 mM of the peptides and the volume was brought up to 0.2 ml with GVBS^++ and 5.0×10^7 RBCs. The samples were incubated for 1 hour at 37° C. and then spun at 3,000 rpm for 5 minutes and the supernatant was collected and read at 412 nm. Values are represented as a percent of the positive control, which consists of human O sera and AB red blood cells in GVBS^++ buffer.\nTo assess the extent to which the peptide variants inhibit antibody-initiated complement activation, an ABO incompatibility ex vivo assay was utilized in which purified erythrocytes from a ‘type AB+’ donor are incubated with sera from a ‘type O’ subject containing anti-A and anti-B antibodies. Peptides were tested at a concentration of 0.8 mg/ml (˜0.5 mM). […] D-amino acid variants PA-0127 and PA-0133 decreased ABO hemolysis by 20% (P value=0.083) and 25% (P value=0.076), respectively. […]"}, "PD-1/PD-L1 interaction": {"target": "T1, PD-1/PD-L1 interaction (Homo sapiens, UniProt Q15116+Q9NZQ7)", "T1 construct": "host or cells: PD-1 effector cells; PD-L1 aAPC/CHO-K1 cells", "T1 sequence (Q15116 25-288)": "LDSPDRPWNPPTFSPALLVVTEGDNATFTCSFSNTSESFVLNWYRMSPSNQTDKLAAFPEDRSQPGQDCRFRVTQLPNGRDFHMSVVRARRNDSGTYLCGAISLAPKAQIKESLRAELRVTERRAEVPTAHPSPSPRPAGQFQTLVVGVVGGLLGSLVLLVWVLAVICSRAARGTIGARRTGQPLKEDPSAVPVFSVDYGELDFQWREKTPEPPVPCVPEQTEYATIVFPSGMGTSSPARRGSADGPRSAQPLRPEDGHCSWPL", "T1 sequence (Q9NZQ7 19-290)": "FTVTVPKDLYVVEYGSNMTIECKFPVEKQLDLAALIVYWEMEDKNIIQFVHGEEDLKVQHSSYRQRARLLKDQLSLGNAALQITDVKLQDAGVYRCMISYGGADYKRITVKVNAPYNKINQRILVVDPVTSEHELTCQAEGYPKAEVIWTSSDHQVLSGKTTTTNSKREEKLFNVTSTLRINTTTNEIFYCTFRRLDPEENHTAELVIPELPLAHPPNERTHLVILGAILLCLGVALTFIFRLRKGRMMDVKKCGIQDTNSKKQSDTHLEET", "test": "PD-1/PD-L1 Blockade Bioassay (Promega)", "format": "cell-based", "conditions": "increasing peptide concentrations", "experimental": "PD-1 effector cells were incubated with PD1-L1 aAPC cells in the absence or presence of increasing concentrations of anti-PD-1 antibody (positive control) and select PIC1 peptides. Luminescence was detected in luminometer plate reader.\nTo assess if PIC1 peptides could block PD-1 inhibitory activity in a cell-based assay, select peptides were screened in the PD-1/PD-L1 Blockade Bioassay (Promega). The PD-1/PD-L1 Blockade Bioassay is a biologically relevant MOA-based assay that can be used to measure the potency and stability of antibodies and other biologics designed to block the PD-1/PD-L1 interaction. This bioluminescent cell-based assay is used to measure the potency and stability of molecules targeting PD-1 and consists of two genetically engineered cell lines: aAPC/CHO-K1 Cells are CHO-K1 cells with an engineered cell surface protein designed to activate cognate TCRs in an antigen-independent manner. When the two cell types are co-cultured, the PD-1/PD-L1 interaction inhibits TCR signaling and NFAT-mediated luciferase activity. Addition of an inhibitory molecule that blocks either PD-1 or PD-L1 releases the inhibitory signal and results in TCR signaling and NFAT-mediated luciferase activity."}}, "note": "Bridge positions count the residues as written; N and C are the ends. Square brackets hold non-standard residues; d marks the D form. Ends that are not written are not given here. R8 = C=CCCCCCC[C@@](C)(N)C(=O)O; S5 = C=CCCC[C@](C)(N)C(=O)O; Sar = CNCC(=O)O", "data": [{"substance": "IALILEP(Sar)CS5QERS5dA (IALILEP[Sar]C[S5]QER[S5][dA]; bridges not given here; also: S5 10-14 may or may not be stapled) [PA-0145]", "values": [{"measurement": "increase in complement inhibition compared to PA-I8Sar", "setting": "[1]", "result": "~10", "unit": "%"}]}, {"substance": "IALILEP(Sar)CS5QdERS5A (IALILEP[Sar]C[S5]Q[dE]R[S5]A; staple 10-14) [PA-0144]", "values": [{"measurement": "inhibition of PD-1/PD-L1 inhibitory signaling (luminescence)", "setting": "PD-1/PD-L1 interaction", "result": "did not show PD-1/PD-L1 inhibitory activity"}]}, {"substance": "IALILEP(Sar)dCS5QERS5A (IALILEP[Sar][dC][S5]QER[S5]A; staple 10-14) [PA-0143]", "values": [{"measurement": "inhibition of PD-1/PD-L1 inhibitory signaling (luminescence)", "setting": "PD-1/PD-L1 interaction", "result": "did not show PD-1/PD-L1 inhibitory activity"}]}, {"substance": "IALILEPI(Sar)CQEdRAA (IALILEPIXCQERAA; D-arginine, sarcosine; MOD_RES (9)..(9) Sarcosine; MOD_RES (13)..(13) D-amino acid) [PA-0167]", "values": [{"measurement": "inhibition of complement in the hemolytic assay compared to PA-C9Sar", "setting": "[1]", "result": "slightly less well"}]}, {"substance": "IALIR8EP(Sar)CCQS5RAA (IALI[R8]EP[Sar]CCQ[S5]RAA; bridges not given here; also: R8/S5 5-12 may or may not be stapled) [PA-0136]", "values": [{"measurement": "inhibition of ABO incompatible hemolysis compared to PA-I8Sar", "setting": "[1]", "result": "same level as the parent molecule"}]}, {"substance": "RLS-0142: PIC1 peptide screened in the bioassay; no sequence printed (IALILEP[Sar][dC][S5]QER[S5]A; staple 10-14)", "values": [{"measurement": "inhibition of PD-1/PD-L1 inhibitory signaling (luminescence)", "setting": "PD-1/PD-L1 interaction", "result": "did not show PD-1/PD-L1 inhibitory activity"}]}, {"substance": "S5ALIS5EP(Sar)CCQERAA ([S5]ALI[S5]EP[Sar]CCQERAA; bridges not given here; also: S5 1-5 hydrocarbon staple: may or may not be stapled) [PA-0138]", "values": [{"measurement": "inhibition of ABO incompatible hemolysis compared to PA-I8Sar", "setting": "[1]", "result": "lesser extent"}]}, {"substance": "dIALILEPI(Sar)CQERAA (IALILEPIXCQERAA; D-isoleucine, sarcosine; MOD_RES (1)..(1) D-amino acid; MOD_RES (9)..(9) Sarcosine) [PA-0156]", "values": [{"measurement": "inhibition of PD-1/PD-L1 inhibitory signaling (luminescence)", "setting": "PD-1/PD-L1 interaction", "result": "did not show PD-1/PD-L1 inhibitory activity"}]}]}
